Patent US10941158B2, “Pyrazole ACC inhibitors and uses thereof” (Gilead Apollo, LLC, priority 2015, dated 2021)
≈ marks a conversion by molar mass, not a printed value. Read-outs that look alike come from different tables or passages of the source.

Assays:
fungal (fACC2) ACC2 = fungal (fACC2) ACC2 (UniProt Q00955); conditions: read-out: fACC2 IC50; fungal ACC2, ADP-Glo
Procedure: An exemplary procedure for the in vitro ACC inhibition assay, which can be used to determine the inhibitory action of compounds of the invention toward either human (hACC2) or fungal (fACC2) ACC2, follows. The ADP-Glo™ Kinase Assay kit from Promega was used. The ADP-Glo™ Kinase Assay is a luminescent ADP detection assay to measure enzymatic activity by quantifying the amount of ADP produced during an enzyme reaction. The assay is performed in two steps; first, after the enzyme reaction, an equal volume of ADP-Glo™ Reagent is added to terminate the reaction and deplete the remaining ATP. Second, the Kinase Detection Reagent is added to simultaneously convert ADP to ATP and allow the newly synthesized ATP to be measured using a luciferase/luciferin reaction. Luminescence can be correlated to ADP concentrations by using an ATP-to-ADP conversion curve. The detailed procedure is as follows. 50 μL of the compound being tested (600 μM in DMSO) was added to a 384-well dilution plate. The compound was diluted 1:3 in succession in DMSO for each row for 11 wells. 0.5 μL ACC2 working solution was added to 384-well white Optiplate assay plate. 0.5 μL diluted compound solution in each column from step 2 was added to assay plate, each row containing 2 replicates. […] The plates were incubated at room temperature for 15 minutes. 5 μL substrate working solution was added to each well to initiate reaction. Final ACC2 reaction concentrations consist of: 5 nM ACC2, 20 μM ATP, 20 μM acetyl-CoA, 12 mM NaHCO3, 0.01% Brij35, 2 mM DTT, 5% DMSO, test compound concentrations: 30 μM, 10 μM, 3.33 μM, 1.11 μM, 0.37 μM, 0.123 μM, 0.0411 μM, 0.0137 μM, 0.00457 μM, 0.00152 μM, and 0.00051 μM. Plates were incubated at room temperature for 60 minutes. 10 μL ADP glo reagent was added. Plates were incubated at room temperature for 40 minutes. 20 μL kinase detection reagent was added. Plates were incubated at room temperature for 40 minutes, and then read on a Perkin Elmer EnVision 2104 plate reader for luminescence as Relative Light Units (RLU).
Data for each concentration, as well as the positive and negative controls were averaged, and the standard deviation calculated. Percent inhibition was calculated by the formula: 100×(average negative control−compound)/(average negative control−average positive control). The IC50 for each compound was calculated by fitting the data with a non-linear regression equation: Y=Bottom+(Top-Bottom)/(1+10^((Log IC50−X)*Hill Slope)), where X is the log of compound concentration and Y is percent inhibition.
Compounds having an activity designated as “AA” provided an IC50 0.0006-0.003 μM; provided an “A” provided an IC50 0.003-0.01 μM; compounds having an activity designated as “B” provided an IC50 0.01-0.04 μM; and compounds having an activity designated as “C” provided an IC50>0.04 μM IC50. “NA” stands for “not assayed.”

[1] = tested on: Fusarium moniliforme (Fm); assay: Growth inhibition assay of fungal pathogens; type: cell-based; conditions: for IC90: Fusarium verticillioides, 48 h, read-out: Concentration at 90% Inhibition Fm
Method in brief: (§1)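 Spores of Fm, Bc and Dm were suspended in 17% V8 liquid medium, while Rs was inoculated as 1.5 mm mycelial plugs in ¼ PDB. Compounds were tested at final 50, 10 and 2 ppm or 2, 0.4 and 0.08 ppm. Percent growth inhibition at 48 h versus 2% DMSO came from OD600 and visual ratings.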

Diplodia maydis (Dm) = assay: Growth inhibition assay of fungal pathogens; type: cell-based; conditions: Stenocarpella maydis, 48 h, read-out: Concentration at 90% Inhibition Dm
Method in brief: as §1

Rhizoctonia solani (Rs) = assay: Growth inhibition assay of fungal pathogens; type: cell-based; conditions: 48 h, read-out: Concentration at 90% Inhibition Rs
Method in brief: as §1

[2] = tested on: Collectotrichum graminicola (Cg); assay: Growth inhibition assay of fungal pathogens; type: cell-based; conditions: 48 h, read-out: Concentration at 90% Inhibition Cg
Method in brief: (§2)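 Compounds in DMSO tested at final 50, 10, 2 ppm or 2, 0.4, 0.08 ppm. Spores in 17% V8 medium, or 1.5 mm mycelial plugs in ¼ PDB for R. solani, incubated with compound. OD600 and visual ratings at 48 h versus 2% DMSO control gave percent growth inhibition.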

Botrtyis cinerea (Bc) = assay: Growth inhibition assay of fungal pathogens; type: cell-based; conditions: 48 h, read-out: Concentration at 90% Inhibition Bc
Method in brief: as §1

Septoria tritici (St) = assay: Growth inhibition assay of fungal pathogens; type: cell-based; conditions: for IC90: Zymoseptoria tritici, read-out: Concentration at 90% Inhibition St
Method in brief: as §2

[3] = tested on: Fusarium virguliforme (Fv); assay: Growth inhibition assay of fungal pathogens; type: cell-based; conditions: 48 h
Method in brief: as §2

[4] = tested on: Phytophthora capsici (Pc); assay: Growth inhibition assay of fungal pathogens; type: cell-based; conditions: for IC90: Phytophthora capsici, read-out: Concentration at 90% Inhibition Pc
Method in brief: as §2

C. krusei ATCC 6258 = assay: Anti-Fungal (Candida) Activity Assay, broth microtiter MIC; type: cell-based; conditions: Pichia kudriavzevii, read-out: MIC C. krusei ATCC 6258
Method in brief: (§3)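 Visual 48 h MIC endpoints are reported. Plates followed CLSI M27-A3 in RPMI 1640 plus MOPS.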

C. albicans ATCC 90028 = assay: as above; type: cell-based; conditions: read-out: MIC C. albicans ATCC 90028
Method in brief: as §3

[5] = tested on: C. parapsilosis ATCC 22019; assay: as above; type: cell-based; conditions: Lodderomyces parapsilosis, read-out: MIC C. parapsilosis ATCC 22019
Method in brief: as §3

human (hACC2) ACC2 = human (hACC2) ACC2 (Homo sapiens, UniProt O00763); assay: In vitro Acetyl-CoA Carboxylase (ACC) inhibition assay (ADP-Glo), hACC2; type: biochemical
Sequence of human (hACC2) ACC2 (O00763 whole entry): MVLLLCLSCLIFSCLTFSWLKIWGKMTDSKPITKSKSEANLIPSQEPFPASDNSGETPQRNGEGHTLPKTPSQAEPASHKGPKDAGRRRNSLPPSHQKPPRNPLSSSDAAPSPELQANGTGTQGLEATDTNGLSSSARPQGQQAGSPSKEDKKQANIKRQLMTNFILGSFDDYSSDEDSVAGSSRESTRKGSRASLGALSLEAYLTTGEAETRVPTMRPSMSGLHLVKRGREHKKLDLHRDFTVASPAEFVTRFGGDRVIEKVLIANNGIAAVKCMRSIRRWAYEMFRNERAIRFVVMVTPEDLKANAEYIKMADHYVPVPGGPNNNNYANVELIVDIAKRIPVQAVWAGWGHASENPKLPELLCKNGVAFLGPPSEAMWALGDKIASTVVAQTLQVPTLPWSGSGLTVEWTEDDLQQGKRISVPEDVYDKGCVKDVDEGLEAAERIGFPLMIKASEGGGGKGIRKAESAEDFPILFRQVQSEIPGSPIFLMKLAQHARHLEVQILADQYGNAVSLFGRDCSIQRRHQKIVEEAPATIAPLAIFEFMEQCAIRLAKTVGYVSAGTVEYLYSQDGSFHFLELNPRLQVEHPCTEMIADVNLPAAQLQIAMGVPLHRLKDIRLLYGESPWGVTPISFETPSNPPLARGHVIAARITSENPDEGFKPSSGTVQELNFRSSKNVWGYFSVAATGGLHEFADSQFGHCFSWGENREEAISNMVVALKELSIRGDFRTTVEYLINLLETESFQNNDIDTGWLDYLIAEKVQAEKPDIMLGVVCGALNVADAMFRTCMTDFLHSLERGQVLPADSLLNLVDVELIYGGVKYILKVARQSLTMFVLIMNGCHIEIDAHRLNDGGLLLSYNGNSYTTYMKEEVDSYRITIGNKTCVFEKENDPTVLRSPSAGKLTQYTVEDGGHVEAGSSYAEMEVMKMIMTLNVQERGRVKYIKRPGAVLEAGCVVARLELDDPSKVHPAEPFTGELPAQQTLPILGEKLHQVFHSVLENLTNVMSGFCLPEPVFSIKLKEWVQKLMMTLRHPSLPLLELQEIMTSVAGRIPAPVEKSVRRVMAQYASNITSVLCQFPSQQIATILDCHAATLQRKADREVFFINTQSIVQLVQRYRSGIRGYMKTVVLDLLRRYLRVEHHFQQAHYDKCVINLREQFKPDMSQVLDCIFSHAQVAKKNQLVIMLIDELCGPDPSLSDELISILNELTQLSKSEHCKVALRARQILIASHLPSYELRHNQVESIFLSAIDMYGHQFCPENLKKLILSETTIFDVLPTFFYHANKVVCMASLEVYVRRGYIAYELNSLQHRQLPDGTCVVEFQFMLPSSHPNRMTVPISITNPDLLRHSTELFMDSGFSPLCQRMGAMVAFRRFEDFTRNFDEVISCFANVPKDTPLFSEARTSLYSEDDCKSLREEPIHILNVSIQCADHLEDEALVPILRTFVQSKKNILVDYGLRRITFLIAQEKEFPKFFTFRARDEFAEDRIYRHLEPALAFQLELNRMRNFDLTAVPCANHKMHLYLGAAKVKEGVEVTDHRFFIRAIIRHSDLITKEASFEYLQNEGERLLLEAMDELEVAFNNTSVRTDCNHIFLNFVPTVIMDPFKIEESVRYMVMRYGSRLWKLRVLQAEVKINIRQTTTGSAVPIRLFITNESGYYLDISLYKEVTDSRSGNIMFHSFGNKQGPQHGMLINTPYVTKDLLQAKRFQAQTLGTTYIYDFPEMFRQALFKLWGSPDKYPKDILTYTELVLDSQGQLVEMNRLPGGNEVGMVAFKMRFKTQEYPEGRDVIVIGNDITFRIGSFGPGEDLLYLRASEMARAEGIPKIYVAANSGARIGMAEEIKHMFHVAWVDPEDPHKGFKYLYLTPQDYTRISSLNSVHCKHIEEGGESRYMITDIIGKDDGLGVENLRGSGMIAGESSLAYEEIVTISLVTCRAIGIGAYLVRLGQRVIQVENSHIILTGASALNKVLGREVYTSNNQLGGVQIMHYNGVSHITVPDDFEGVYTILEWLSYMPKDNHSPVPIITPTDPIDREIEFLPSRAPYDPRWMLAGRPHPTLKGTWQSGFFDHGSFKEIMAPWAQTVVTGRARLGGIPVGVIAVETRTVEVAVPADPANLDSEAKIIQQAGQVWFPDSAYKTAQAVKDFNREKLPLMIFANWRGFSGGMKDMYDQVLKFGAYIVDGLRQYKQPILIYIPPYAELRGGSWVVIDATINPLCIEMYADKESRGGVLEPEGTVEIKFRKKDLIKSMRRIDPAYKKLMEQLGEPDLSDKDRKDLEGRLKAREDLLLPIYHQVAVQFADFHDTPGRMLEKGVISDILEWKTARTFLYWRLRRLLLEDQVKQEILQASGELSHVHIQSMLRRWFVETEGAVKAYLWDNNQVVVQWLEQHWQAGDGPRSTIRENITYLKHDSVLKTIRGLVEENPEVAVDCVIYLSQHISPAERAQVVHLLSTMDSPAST
Procedure: The detailed procedure is as follows. […] 10 μL ADP glo reagent was added. […] 20 μL kinase detection reagent was added.
“NA” stands for “not assayed.”

[6] = Table 4a, 48 hours, read-out: Concentration at 90% Inhibition Fv
[7] = Table 4b, 48 hours, read-out: Concentration at 90% Inhibition Fv
[8] = ATCC6258, 3 replicates, MIC recorded at 48 h
[9] = ATCC90028, 3 replicates, MIC recorded at 48 h
[10] = ATCC22019, 3 replicates, MIC recorded at 48 h

Sequence of fungal (fACC2) ACC2 (Q00955 whole entry): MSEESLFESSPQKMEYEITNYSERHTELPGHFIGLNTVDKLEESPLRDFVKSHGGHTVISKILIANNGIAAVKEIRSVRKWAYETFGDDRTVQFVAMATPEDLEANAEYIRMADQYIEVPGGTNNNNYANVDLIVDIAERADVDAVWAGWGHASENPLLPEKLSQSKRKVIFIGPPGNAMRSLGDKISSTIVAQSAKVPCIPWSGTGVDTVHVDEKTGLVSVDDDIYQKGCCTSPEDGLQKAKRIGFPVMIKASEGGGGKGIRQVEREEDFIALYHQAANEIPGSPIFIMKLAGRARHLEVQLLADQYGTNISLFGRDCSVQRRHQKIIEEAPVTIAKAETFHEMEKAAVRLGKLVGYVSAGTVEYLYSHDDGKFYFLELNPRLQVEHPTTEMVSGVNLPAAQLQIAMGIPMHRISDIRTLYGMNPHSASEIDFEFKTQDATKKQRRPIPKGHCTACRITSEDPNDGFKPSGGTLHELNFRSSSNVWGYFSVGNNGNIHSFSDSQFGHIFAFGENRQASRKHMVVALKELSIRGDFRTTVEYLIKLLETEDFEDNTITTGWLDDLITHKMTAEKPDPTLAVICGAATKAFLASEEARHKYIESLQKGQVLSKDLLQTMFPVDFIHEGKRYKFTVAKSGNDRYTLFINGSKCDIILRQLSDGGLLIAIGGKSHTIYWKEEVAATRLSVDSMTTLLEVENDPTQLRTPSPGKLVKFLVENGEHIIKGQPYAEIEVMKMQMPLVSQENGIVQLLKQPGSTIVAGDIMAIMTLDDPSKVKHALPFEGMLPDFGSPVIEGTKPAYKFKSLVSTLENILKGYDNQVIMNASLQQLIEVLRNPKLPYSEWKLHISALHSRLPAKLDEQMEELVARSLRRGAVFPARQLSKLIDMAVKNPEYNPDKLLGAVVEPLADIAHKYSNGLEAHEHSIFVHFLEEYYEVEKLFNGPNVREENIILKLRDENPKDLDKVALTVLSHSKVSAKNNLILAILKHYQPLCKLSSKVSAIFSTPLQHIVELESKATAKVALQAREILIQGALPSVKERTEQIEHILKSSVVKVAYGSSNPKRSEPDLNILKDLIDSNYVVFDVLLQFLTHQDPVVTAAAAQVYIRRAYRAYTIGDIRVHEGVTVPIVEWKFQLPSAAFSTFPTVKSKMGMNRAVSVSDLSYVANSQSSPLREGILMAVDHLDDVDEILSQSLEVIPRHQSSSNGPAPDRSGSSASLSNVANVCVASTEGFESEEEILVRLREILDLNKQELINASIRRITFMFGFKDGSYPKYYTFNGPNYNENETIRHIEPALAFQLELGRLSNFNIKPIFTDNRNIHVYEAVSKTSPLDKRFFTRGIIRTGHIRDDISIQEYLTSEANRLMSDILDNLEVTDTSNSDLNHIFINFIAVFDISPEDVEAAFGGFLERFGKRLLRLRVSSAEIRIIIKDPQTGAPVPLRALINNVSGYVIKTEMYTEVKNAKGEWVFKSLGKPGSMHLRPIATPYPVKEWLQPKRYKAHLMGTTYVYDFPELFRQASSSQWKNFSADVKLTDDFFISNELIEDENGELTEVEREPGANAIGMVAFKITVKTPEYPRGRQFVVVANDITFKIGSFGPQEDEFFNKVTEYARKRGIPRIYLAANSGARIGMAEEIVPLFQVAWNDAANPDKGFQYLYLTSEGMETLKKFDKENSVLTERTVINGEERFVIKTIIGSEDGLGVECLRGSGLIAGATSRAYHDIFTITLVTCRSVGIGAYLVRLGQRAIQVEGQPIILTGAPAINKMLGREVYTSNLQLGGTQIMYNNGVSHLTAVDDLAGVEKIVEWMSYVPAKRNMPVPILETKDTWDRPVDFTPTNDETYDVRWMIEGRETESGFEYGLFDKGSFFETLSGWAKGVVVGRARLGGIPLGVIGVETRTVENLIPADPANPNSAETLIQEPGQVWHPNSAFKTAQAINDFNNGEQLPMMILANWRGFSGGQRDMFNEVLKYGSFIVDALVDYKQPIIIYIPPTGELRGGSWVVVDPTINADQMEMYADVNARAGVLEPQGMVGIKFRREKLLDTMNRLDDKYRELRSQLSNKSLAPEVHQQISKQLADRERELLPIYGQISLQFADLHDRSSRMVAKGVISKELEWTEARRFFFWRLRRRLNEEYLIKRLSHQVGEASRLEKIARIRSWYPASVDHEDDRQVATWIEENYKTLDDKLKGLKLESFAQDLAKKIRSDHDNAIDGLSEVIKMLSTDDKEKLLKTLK

Structure (SMILES) | IC50 (fungal (fACC2) ACC2) | IC90 ([1]; Table 4a, 48 hours) | IC90 ([1]; Table 4b, 48 hours) | IC90 (Diplodia maydis (Dm); Table 4a) | IC90 (Diplodia maydis (Dm); Table 4b) | IC90 (Rhizoctonia solani (Rs); Table 4a) | IC90 (Rhizoctonia solani (Rs); Table 4b) | IC90 ([2]; Table 4a) | IC90 ([2]; Table 4b) | IC90 (Botrtyis cinerea (Bc); Table 4a) | IC90 (Botrtyis cinerea (Bc); Table 4b) | Concentration at 90% Inhibition St (Septoria tritici (St); Table 4b, 48 hours) | IC90 (Septoria tritici (St); Table 4a, 48 hours) | IC90 [3, 6] | IC90 [3, 7] | IC90 ([4]; Table 4a, 48 hours) | Concentration at 90% Inhibition Pc ([4]; Table 4b, 48 hours) | MIC (C. krusei ATCC 6258; [8]) | MIC (C. albicans ATCC 90028; [9]) | IC50 (human (hACC2) ACC2) | other results
COc1ccc(F)cc1[C@H](Cn1c(=O)n([C@@H](C)C(=O)N2CCCC2)c(=O)c2c(C)c(-n3cccn3)sc21)OC(C)C [Compound I-31, 1-((R)-2-(5-fluoro-2-methoxyphenyl)-2-isopropoxyethyl)-5-methyl-3-((S)-1-oxo-1-(pyrrolidin-1-yl)propan-2-yl)-6-(1H-pyrazol-1-yl)thieno[2,3-d]pyrimidine-2,4(1H,3H)-dione] | 0.6 to 3 nM | 0.08 µg/mL (≈ 0.137 µM) | 0.08 µg/mL (≈ 0.137 µM) | 0.4 µg/mL (≈ 0.685 µM) | 0.4 µg/mL (≈ 0.685 µM) | 2 µg/mL (≈ 3.43 µM) | 2 µg/mL (≈ 3.43 µM) | 0.4 µg/mL (≈ 0.685 µM) | 0.4 µg/mL (≈ 0.685 µM) | 0.4 µg/mL (≈ 0.685 µM) | 0.4 µg/mL (≈ 0.685 µM) | D (“D” provided a compound concentration of >50 ppm at 90% inhibition of fungal pathogens) | > 50 µg/mL | 0.4 µg/mL (≈ 0.685 µM) | 0.4 µg/mL (≈ 0.685 µM) | > 50 µg/mL | D (“D” provided a compound concentration of >50 ppm at 90% inhibition of fungal pathogens) | 2.1 to 4 µg/mL (≈ 3.6 to 6.85 µM) | 1.1 to 2 µg/mL (≈ 1.88 to 3.43 µM) | 3 to 10 nM | MIC [5, 10]: 2.1 to 4 µg/mL (≈ 3.6 to 6.85 µM)
COc1ccc(F)cc1[C@H](Cn1c(=O)n(C(C)C(=O)N2CCCC2)c(=O)c2c(C)c(-n3cccn3)sc21)OC(C)C (stereo partly drawn) [Compound I-32, 1-((R)-2-(5-fluoro-2-methoxyphenyl)-2-isopropoxyethyl)-5-methyl-3-(1-oxo-1-(pyrrolidin-1-yl)propan-2-yl)-6-(1H-pyrazol-1-yl)thieno[2,3-d]pyrimidine-2,4(1H,3H)-dione] | 0.6 to 3 nM | 0.08 µg/mL (≈ 0.137 µM) | 0.08 µg/mL (≈ 0.137 µM) | 2 µg/mL (≈ 3.43 µM) | 2 µg/mL (≈ 3.43 µM) | 2 µg/mL (≈ 3.43 µM) | 2 µg/mL (≈ 3.43 µM) | 0.4 µg/mL (≈ 0.685 µM) | 0.4 µg/mL (≈ 0.685 µM) | 0.4 µg/mL (≈ 0.685 µM) | 0.4 µg/mL (≈ 0.685 µM) | D (“D” provided a compound concentration of >50 ppm at 90% inhibition of fungal pathogens) | > 50 µg/mL | 0.4 µg/mL (≈ 0.685 µM) | 0.4 µg/mL (≈ 0.685 µM) | > 50 µg/mL | D (“D” provided a compound concentration of >50 ppm at 90% inhibition of fungal pathogens) | 2.1 to 4 µg/mL (≈ 3.6 to 6.85 µM) | 2.1 to 4 µg/mL (≈ 3.6 to 6.85 µM) | 3 to 10 nM | MIC [5, 10]: > 4.1 µg/mL
CCO[C@@H](Cn1c(=O)n(C(C)(C)C(=O)NC(C)C)c(=O)c2c(C)c(-n3cccn3)sc21)c1cc(F)ccc1OC [Compound I-33, (R)-2-(1-(2-ethoxy-2-(5-fluoro-2-methoxyphenyl)ethyl)-5-methyl-2,4-dioxo-6-(1H-pyrazol-1-yl)-1,4-dihydrothieno[2,3-d]pyrimidin-3(2H)-yl)-N-isopropyl-2-methylpropanamide] | 0.6 to 3 nM |  |  | > 50 µg/mL | > 50 µg/mL | 10 µg/mL (≈ 17.5 µM) | 2 µg/mL (≈ 3.5 µM) | 10 µg/mL (≈ 17.5 µM) | 2 µg/mL (≈ 3.5 µM) | 2 µg/mL (≈ 3.5 µM) | 2 µg/mL (≈ 3.5 µM) |  |  |  |  |  |  |  |  | 10 to 40 nM | IC90 [1]: 0.4 µg/mL (≈ 0.7 µM); Concentration at 90% Inhibition Fm ([1]; Table 4b, 48 hours): A (“A” provided a compound concentration of 0.4 ppm at 90% inhibition of fungal pathogens); IC90 (Septoria tritici (St); 48 h, Table 4a): > 50 µg/mL; IC90 (Septoria tritici (St); 48 h, Table 4b): > 50 µg/mL; IC90 ([3]; read-out: Concentration at 90% Inhibition Fv, Table 4a, 48 hours): 0.4 µg/mL (≈ 0.7 µM); IC90 ([3]; read-out: Concentration at 90% Inhibition Fv, Table 4b, 48 hours): 0.4 µg/mL (≈ 0.7 µM); IC90 ([4]; 48 h, Table 4a): > 50 µg/mL; IC90 ([4]; 48 h, Table 4b): > 50 µg/mL; MIC (C. krusei ATCC 6258; ATCC6258, 48 h): > 4.1 µg/mL; MIC (C. albicans ATCC 90028; ATCC90028, 48 h): > 4.1 µg/mL; MIC ([5]; ATCC22019, 48 h): > 4.1 µg/mL
CCO[C@@H](Cn1c(=O)n(C(C)(C)C(=O)N2CCCC2)c(=O)c2c(C)c(-n3cccn3)sc21)c1cc(F)ccc1OC [Compound I-34, (R)-1-(2-ethoxy-2-(5-fluoro-2-methoxyphenyl)ethyl)-5-methyl-3-(2-methyl-1-oxo-1-(pyrrolidin-1-yl)propan-2-yl)-6-(1H-pyrazol-1-yl)thieno[2,3-d]pyrimidine-2,4(1H,3H)-dione] | 0.6 to 3 nM | 0.08 µg/mL (≈ 0.137 µM) | 0.08 µg/mL (≈ 0.137 µM) | 10 µg/mL (≈ 17.1 µM) | 2 µg/mL (≈ 3.43 µM) | 2 µg/mL (≈ 3.43 µM) | 2 µg/mL (≈ 3.43 µM) | 2 µg/mL (≈ 3.43 µM) | 2 µg/mL (≈ 3.43 µM) | 0.4 µg/mL (≈ 0.685 µM) | 0.4 µg/mL (≈ 0.685 µM) | D (“D” provided a compound concentration of >50 ppm at 90% inhibition of fungal pathogens) | > 50 µg/mL | 0.4 µg/mL (≈ 0.685 µM) | 0.4 µg/mL (≈ 0.685 µM) | > 50 µg/mL | D (“D” provided a compound concentration of >50 ppm at 90% inhibition of fungal pathogens) | > 4.1 µg/mL | > 4.1 µg/mL | 10 to 40 nM | MIC [5, 10]: > 4.1 µg/mL
COc1ccc(F)cc1[C@H](Cn1c(=O)n(C(C)(C)C(=O)N2CCCC2)c(=O)c2c(C)c(-n3cccn3)sc21)OCCO [Compound I-36, (R)-1-(2-(5-fluoro-2-methoxyphenyl)-2-(2-hydroxy-ethoxy)ethyl)-5-methyl-3-(2-methyl-1-oxo-1-(pyrrolidin-1-yl)propan-2-yl)-6-(1H-pyrazol-1-yl)thieno[2,3-d]pyrimidine-2,4(1H,3H)-dione] | 0.6 to 3 nM | 2 µg/mL (≈ 3.34 µM) | 2 µg/mL (≈ 3.34 µM) | > 50 µg/mL | > 50 µg/mL | > 50 µg/mL | 10 µg/mL (≈ 16.7 µM) | > 50 µg/mL | 10 µg/mL (≈ 16.7 µM) | > 50 µg/mL | 10 µg/mL (≈ 16.7 µM) | D (“D” provided a compound concentration of >50 ppm at 90% inhibition of fungal pathogens) | > 50 µg/mL | 2 µg/mL (≈ 3.34 µM) | 2 µg/mL (≈ 3.34 µM) | > 50 µg/mL | D (“D” provided a compound concentration of >50 ppm at 90% inhibition of fungal pathogens) | 1.1 to 2 µg/mL (≈ 1.83 to 3.34 µM) | 2.1 to 4 µg/mL (≈ 3.5 to 6.67 µM) | 3 to 10 nM | MIC [5, 10]: 2.1 to 4 µg/mL (≈ 3.5 to 6.67 µM)
COc1ccc(F)cc1[C@H](Cn1c(=O)n(C(C)(C)C(=O)N2CCCC2)c(=O)c2c(C)c(-n3cccn3)sc21)OC[C@@H](C)O [Compound I-37, 1-((R)-2-(5-fluoro-2-methoxyphenyl)-2-((R)-2-hydroxy-propoxy)ethyl)-5-methyl-3-(2-methyl-1-oxo-1-(pyrrolidin-1-yl)propan-2-yl)-6-(1H-pyrazol-1-yl)thieno[2,3-d]pyrimidine-2,4(1H,3H)-dione] | 0.6 to 3 nM | 0.4 µg/mL (≈ 0.652 µM) | 0.4 µg/mL (≈ 0.652 µM) | > 50 µg/mL | 10 µg/mL (≈ 16.3 µM) | 10 µg/mL (≈ 16.3 µM) | 2 µg/mL (≈ 3.26 µM) | > 50 µg/mL | 10 µg/mL (≈ 16.3 µM) | 2 µg/mL (≈ 3.26 µM) | 2 µg/mL (≈ 3.26 µM) | D (“D” provided a compound concentration of >50 ppm at 90% inhibition of fungal pathogens) | > 50 µg/mL | 2 µg/mL (≈ 3.26 µM) | 2 µg/mL (≈ 3.26 µM) | > 50 µg/mL | D (“D” provided a compound concentration of >50 ppm at 90% inhibition of fungal pathogens) | 1.1 to 2 µg/mL (≈ 1.79 to 3.26 µM) | 2.1 to 4 µg/mL (≈ 3.42 to 6.52 µM) | 3 to 10 nM | MIC [5, 10]: 2.1 to 4 µg/mL (≈ 3.42 to 6.52 µM)
